# Laboratory results reported in patent US6642209B1, “Use of adenosine compounds to alleviate or normalize pathologically hyperexcited sensory nerve function in a human patient” (priority 1990, dated 2003).
# “Also recorded” adds a separate entry of the source.
# What was measured:
# [1] = tested on: experimental animals; settings: cited from earlier work
# [2] = tested on: dogs; experiment: Oxygen transport and regional tissue oxygenation during graded induced hypotension; format: in vivo, dog
# Protocol: Arterial and pulmonary artery (Swan-Ganz) catheters were placed via a femoral cut down. […] Another PO2 sensor probe was placed on the surface of the liver, kidney, subcutaneous, and muscle of the chest wall through a small skin incision. Referring to FIG. 6, the dogs were divided into three groups: (a) hemorrhagic (n=7), (b) isoflurane (n=8), and (c) ATP (n=8). […] The following were measured and/or calculated: […] The data were analyzed using ANOVA with the Bonferroni t-test and unpaired t-test where appropriate, accepting p<0.05 as significant.
# [3] = Anesthesia score chart comparing anesthetic agents for the four components of anesthesia (Table 1); design: key: 0 no effect; 1 minimal; 2 mostly; 3 maximal
# [4] = tested on: rabbits; experiment: Hypothermia induced under adenosine or ATP infusion; format: in vivo, rabbit; settings: external cooling
# Protocol: The hypothermic and rewarming effects of an adenosine compound are tested in experimental animals prepared similarly as in the rabbit model described herein to test for anesthetic effects, except that the body temperature is allowed to fall. In animal studies (rabbit) where the room has a temperature of approximately 22° C., the body temperature will fall from a norm of about 39° C. to about 32° C. in about three hours. If the animal is cooled further with ice bags, a temperature of approximately 22° C. can be achieved in three hours without cardiovascular decompensation. Rewarming is done with the aid of a thermal blanket and heat lamp. The effective dosages of adenosine compound ranged from about 100 μg/kg/min to about 5000 μg/kg/min.
# Referring to FIG. 7, the body temperature versus time plots are shown for eight different experiments. In Run 1, adenosine 500 μg/kg/min was administered intravenously to rabbits for six hours. The administration was then stopped and the body temperatures were allowed to recover.
# In Run 2, ATP 500 μg/kg/min was administered intravenously for six hours. At that time, the body temperature was 31.5° C. The animal's body temperature was allowed to recover by applying external heating for four hours when (at the arrow) the external heating was removed and the temperature was allowed to fall. The body temperature again fell.
# In Run 3, ATP was administered intravenously. The body temperature stabilized after ten hours at 32.5° C.
# In Runs 4, 5, and 6, adenosine was administered to rabbits until the body temperature reached a constant value. In Run 4, after five hours, the body temperature stabilized at 33° C. In Run 6, after six hours, the temperature stabilized at 31.5° C.
# In Run 7, five unmedicated New Zealand rabbits were anesthetized with halothane in O2 using a face mask. The ear vein was cannulated with a 22 gauge plastic catheter for drug infusion. 500 μg/kg/min to 5500 μ/kg/min adenosine was administered IV. Body temperature was monitored through a rectal thermometer. The body temperature started at approximately 38.5° C. After the application of ice bags, the temperature dropped approximately 5.5° C./hr until a minimum body temperature of approximately 22° C. was achieved.
# The ice bags were removed and external heating applied. The body temperature of all rabbits returned to normal, and the rabbits were apparently normal.
# In a comparison, in Run 8, six rabbits were anesthetized with isofluane and external cooling applied.
smiles,measurement,setting,value
FC(F)OC(Cl)C(F)(F)F (centres unmarked) [isoflurane],fatal to effective anesthetic ratio,[1]; in vivo,3.02±0.13
same,safety range relative to halothane,[1]; other reports,about 1.88 times
same,O2 supply/demand ratio,[2]; graded hypotension to MAP 30 mmHg,reduced O2 supply/demand ratio
same,O2 delivery (DO2),"[2]; graded hypotension, higher dosage",seriously depressed DO2
same,"Antinociception (analgesia, less pain perception)",[3]; Anesthesia Score 0 to 3,1
same,"Inhibition of Stress (autonomic responses: blood pressure, heart rate; endocrine and metabolic responses)",[3]; Anesthesia Score 0 to 3,1
same,Muscle Relaxation,[3]; Anesthesia Score 0 to 3,1
same,"Sleep (unconsciousness, amnesia, sedation)",[3]; Anesthesia Score 0 to 3,3
same,TOTALS of Anesthesia Score,[3]; sum of the four components,6
same,survival during body temperature lowering,"[4]; Run 7 (five rabbits), Run 8 (six rabbits)",one rabbit expired due to ventricular fibrillation; also recorded: another expired due to pulmonary edema
same,shivering during body temperature lowering,"[4]; Run 7, Run 8",shiver violently
